Laboratory results: patent publication US20220387365A1, “TUCARESOL DERIVATIVES AND USES THEREOF” (BeyondSpring Pharmaceuticals, Inc., priority 2019, published 2022)

How the values were obtained:
[1] = Intravenous and oral dosing pharmacokinetic screen, plasma concentration by LC/MS/MS; parameters: species or system C57BL/6 mice; settings: in vivo; for concentration at 0.083 h / concentration at 0.25 h / concentration at 0.5 h / concentration at 2 h / concentration at 4 h / concentration at 1 h / concentration at 8 h / concentration at 24 h: B02 concentration
Method: (§1) Tucaresol, Compound B02, Compound C01, Compound C02-1, and Compound C02 were dosed once, by IV bolus (3 mg/kg in 20% hydroxyprophyl-13-cyclodextrin with 1 eq NaOH) or PO (10 mg/kg in 1% carboxymethylcellulose/0.1% tween-80 in water), to non-fasted male C57BL/6 mice. Animals were bled from the dorsal metatarsal vein (from the heart for 24 hour time point) for K2-EDTA plasma 0.083 (for IV only), 0.25, 0.5, 1, 2, 4, 8, and 24 hours after dosing. The plasma concentration of the dosed tucaresol or compound were measured by LC/MS/MS (I-CMS-8060 instrument for MS). PK parameters were then calculated with WinNonlin 6.1. For Compounds C01, CO2 and CO2-1, stability in C57BL/6 K2EDTA plasma was also evaluated at 22° C. over 1 hour by utilizing LC.

[2] = Stability in C57BL/6 K2EDTA plasma at 22° C. over 1 hour by LC; assay type: in vitro ADME, mouse; settings: for mouse plasma stability (in words): 22° C.; for Remaining %: mouse plasma, 2,000 ng/mL, 22°C
Method: as §1
Compounds C01 and C02-1 are unstable at 22° C.

[3] = male, C57BL/6, mouse, iv, 3 mg/kg, 0.083 h
[4] = male, C57BL/6, mouse, iv, 3 mg/kg, 0.25 h
[5] = male, C57BL/6, mouse, iv, 3 mg/kg, 2 h
[6] = male, C57BL/6, mouse, iv, 3 mg/kg, 4 h
[7] = male, C57BL/6, mouse, iv, 3 mg/kg, 8 h
[8] = male, C57BL/6, mouse, iv, 3 mg/kg
[9] = male, C57BL/6, mouse, iv, 3 mg/kg, Mean
[10] = male, C57BL/6, mouse, po, 10 mg/kg, 0.25 h
[11] = male, C57BL/6, mouse, po, 10 mg/kg, 0.5 h
[12] = male, C57BL/6, mouse, po, 10 mg/kg, 1 h
[13] = male, C57BL/6, mouse, po, 10 mg/kg, 2 h
[14] = male, C57BL/6, mouse, po, 10 mg/kg, 4 h
[15] = male, C57BL/6, mouse, po, 10 mg/kg, 8 h
[16] = male, C57BL/6, mouse, po, 10 mg/kg
[17] = male, C57BL/6, mouse, po, 10 mg/kg, Mean
[18] = male, C57BL/6, mouse, iv, 3 mg/kg, 0.5 h
[19] = male, C57BL/6, mouse, iv, 3 mg/kg, 1 h

**Q.** Which results are given for `CO/N=C/c1c(O)cccc1OCc1ccc(C(=O)O)cc1` [Compound B02, (E)−4+((3-hydroxy-2-((methoxyimino)methyl)phenoxy)methyl)benzoic acid]?
**A.** AUClast/D ([1]; male, C57BL/6, mouse): 24.3 ng·h/mL per mg/kg; T1/2 ([1]; male, C57BL/6, mouse): 5.49 h; Tmax ([1]; male, C57BL/6, mouse): 5.42 h; Tucaresol plasma concentration, Mean [1, 3]: 12.5 ng/mL; Tucaresol plasma concentration, Mean [1, 4]: 6.01 ng/mL; Tucaresol plasma concentration, Mean [1, 5]: 4.30 ng/mL; Tucaresol plasma concentration, Mean [1, 6]: 7.04 ng/mL; Tucaresol plasma concentration, Mean [1, 7]: 8.52 ng/mL; concentration at 0.083 h [1, 8]: 3220 ng/mL; concentration at 0.25 h [1, 8]: 1740 ng/mL; concentration at 0.5 h [1, 8]: 335 ng/mL; concentration at 2 h [1, 8]: 179 ng/mL; concentration at 4 h [1, 8]: 43.4 ng/mL; concentration at 0.083 h [1, 9]: 3050 ng/mL; concentration at 0.25 h [1, 9]: 1340 ng/mL; concentration at 0.5 h [1, 9]: 283 ng/mL; concentration at 1 h [1, 9]: 48.3 ng/mL; concentration at 2 h [1, 9]: 187 ng/mL; concentration at 4 h [1, 9]: 54 ng/mL; concentration at 8 h [1, 9]: 18 ng/mL; Tucaresol plasma concentration, Mean [1, 10]: 16.2 ng/mL; Tucaresol plasma concentration, Mean [1, 11]: 9.3 ng/mL; Tucaresol plasma concentration, Mean [1, 12]: 5.54 ng/mL; Tucaresol plasma concentration, Mean [1, 13]: 11.0 ng/mL; Tucaresol plasma concentration, Mean [1, 14]: 15.7 ng/mL; Tucaresol plasma concentration, Mean [1, 15]: 28.4 ng/mL; concentration at 0.25 h [1, 16]: 5780 ng/mL; concentration at 0.5 h [1, 16]: 3370 ng/mL; concentration at 4 h [1, 16]: 468 ng/mL; concentration at 8 h [1, 16]: 114 ng/mL; concentration at 24 h [1, 16]: 6.93 ng/mL; concentration at 0.25 h [1, 17]: 4260 ng/mL; concentration at 0.5 h [1, 17]: 2650 ng/mL; concentration at 1 h [1, 17]: 674 ng/mL; concentration at 2 h [1, 17]: 478 ng/mL; concentration at 4 h [1, 17]: 412 ng/mL; concentration at 8 h [1, 17]: 152 ng/mL; concentration at 24 h [1, 17]: 10.5 ng/mL

**Q.** With `CC(=O)Oc1cccc(OCc2ccc(C(=O)O)cc2)c1C=O` [Compound C01, 4-((3-acetoxy-2-formylphenoxy)methyl)benzoic acid] as the compound, how does the AUClast/D ([1]; male, C57BL/6, mouse) read?
**A.** 4.24 ng·h/mL per mg/kg

**Q.** What about the F ([1]; male, C57BL/6, mouse) of the same compound?
**A.** 0.333%

**Q.** What about the T1/2 ([1]; male, C57BL/6, mouse) of the same compound?
**A.** 4.24 h

**Q.** What about the Tmax ([1]; male, C57BL/6, mouse) of the same compound?
**A.** 0.333 h

**Q.** And the “Concentration, Compound B02 IV Plasma concentration-time data, Mean” value [1, 3]?
**A.** 1021 ng/mL

**Q.** What about the “Concentration, Compound B02 IV Plasma concentration-time data, Mean” value [1, 4] of the same compound?
**A.** 691 ng/mL

**Q.** And the “Concentration, Compound B02 IV Plasma concentration-time data, Mean” value [1, 18]?
**A.** 465 ng/mL

**Q.** And the “Concentration, Compound B02 IV Plasma concentration-time data, Mean” value [1, 19]?
**A.** 316 ng/mL

**Q.** And the “Concentration, Compound B02 IV Plasma concentration-time data, Mean” value [1, 5]?
**A.** 201 ng/mL

**Q.** And the “Concentration, Compound B02 IV Plasma concentration-time data, Mean” value [1, 6]?
**A.** 116 ng/mL

**Q.** What about the “Concentration, Compound B02 IV Plasma concentration-time data, Mean” value [1, 7] of the same compound?
**A.** 60.9 ng/mL

**Q.** And the “tucaresol exposure in plasma (in words)” value ([1]; male, C57BL/6, mouse, po)?
**A.** significant but lower tucaresol exposure than Compound C02 dosing

**Q.** What about the “Concentration, Compound B02 PO Plasma concentration-time data, Mean” value [1, 10] of the same compound?
**A.** 643 ng/mL

**Q.** And the “Concentration, Compound B02 PO Plasma concentration-time data, Mean” value [1, 11]?
**A.** 512 ng/mL

**Q.** What about the “Concentration, Compound B02 PO Plasma concentration-time data, Mean” value [1, 12] of the same compound?
**A.** 386 ng/mL

**Q.** And the “Concentration, Compound B02 PO Plasma concentration-time data, Mean” value [1, 13]?
**A.** 302 ng/mL

**Q.** What about the “Concentration, Compound B02 PO Plasma concentration-time data, Mean” value [1, 14] of the same compound?
**A.** 191 ng/mL

**Q.** What about the “Concentration, Compound B02 PO Plasma concentration-time data, Mean” value [1, 15] of the same compound?
**A.** 107 ng/mL

**Q.** What about the “Concentration, Compound B02 PO Plasma concentration-time data, Mean” value ([1]; male, C57BL/6, mouse, po, 10 mg/kg, 24 h) of the same compound?
**A.** 7.50 ng/mL

**Q.** What about the “tucaresol exposure in plasma (in words)” value ([1]; mouse, po) of the same compound?
**A.** significant exposure to tucaresol in plasma

**Q.** What about the “mouse plasma stability (in words)” value [2] of the same compound?
**A.** unstable

**Q.** What about the Remaining % ([2]; 0 min) of the same compound?
**A.** 100%

**Q.** What about the Remaining % ([2]; 5 min) of the same compound?
**A.** 15.0%

**Q.** And the Remaining % ([2]; 15 min)?
**A.** 1.07%

**Q.** What does the source list for `COC(=O)c1ccc(COc2cccc(O)c2C=O)cc1` [Compound C02-1, methyl 4-((2-formyl-3-hydroxyphenoxy)methyl)benzoate]?
**A.** AUClast/D ([1]; male, C57BL/6, mouse): 161 ng·h/mL per mg/kg; T1/2 ([1]; male, C57BL/6, mouse): 13.8 h; Tmax ([1]; male, C57BL/6, mouse): 3.33 h; Tucaresol concentration, Mean [1, 3]: 17.3 ng/mL; Tucaresol concentration, Mean [1, 4]: 52.9 ng/mL; Tucaresol concentration, Mean [1, 18]: 79.9 ng/mL; Tucaresol concentration, Mean [1, 19]: 60.5 ng/mL; Tucaresol concentration, Mean [1, 5]: 49.3 ng/mL; Tucaresol concentration, Mean [1, 6]: 36.0 ng/mL; Tucaresol concentration, Mean [1, 7]: 18.2 ng/mL; Tucaresol concentration, Mean [1, 11]: 15.9 ng/mL; Tucaresol concentration, Mean [1, 12]: 49.9 ng/mL; Tucaresol concentration, Mean [1, 13]: 103 ng/mL; Tucaresol concentration, Mean [1, 14]: 114 ng/mL; Tucaresol concentration, Mean [1, 15]: 83.0 ng/mL; mouse plasma stability (in words) [2]: unstable; Remaining % ([2]; 0 min): 100%; Remaining % ([2]; 5 min): 18.9%; Remaining % ([2]; 15 min): 16.7%; Remaining % ([2]; 30 min): 6.56%; Remaining % ([2]; 60 min): 2.37%
